Among the data in patent US6569612B1, “Photographic element containing a high-dye-yield coupler for producing a yellow hue” (Eastman Kodak Company, priority 2001, dated 2003) are pKa values, retold here.

The series in a line: Measuring pKas of couplers in TRITON X-100 media. The class given is physicochemical. How it is done:
Procedure for Measuring pKas of Couplers in TRITONX-100 Media:
A solution of the coupler that was ca. 5E-3 M was made with 5.0 mL of dimethyl sulfoxide solvent. A 0.50-mL aliquot of the solution was added to 3.18 g of Triton X- 100 surfactant in a 50-mL volumetric flask. Then ca. 25 mL of ca. 40-deg C. distilled water was added while swirling vigorously. The solution was then cooled to ambient temperature and diluted to 50 mL with water. Various phosphate buffer solutions as potassium salts were prepared with pHs ranging from 3.73 to 12 with ionic strength of 0.75. Ionic strength computations were done using the three pKas for phosphoric acid. A 2.0-mL aliquot of the stock coupler solution was mixed with 2.0 mL of chosen buffer in a 5-dram vial. […] A wavelength between 310 and 350 nm was typically chosen. The pH of the mixture was then measured with a CORNING Model 125 meter. A baseline reference blank spectrum was run with TRITON X-100 (surfactant) and pH 7 buffer. The data of corrected absorbances (differences from the blank spectrum) and pHs were used to compute by least-squares the pKa and the other two unknowns of high and low limiting densities. The pKa measurements are made with an experimental uncertainty within ±0.10, which depends on sources of material, the number of experimental points, number of replicates, and the like.

Where [1] appears, read: Table 3, TRITON X-100 media, read-out: pKa.
The mark [2] stands for this setting: Table 5, TRITON X-100 media, read-out: pKa.
Setting [3] is: Table 7, TRITON X-100 media, read-out: pKa.
Where [4] appears, read: Table 4, TRITON X-100 media, read-out: pKa.
The mark [5] stands for this setting: Table 8, TRITON X-100 media, read-out: pKa.

Each structure is given as a SMILES string. Read-outs that look alike come from different tables or passages of the source.

In the case of `CCCCCCCCCCCCOC(=O)c1ccc(Cl)c(NC(=O)C(C(=O)c2ccc(OC)cc2)N2C(=O)C(OCC)N(Cc3ccccc3)C2=O)c1` (stereo not drawn) [CY-1, reference compound], under setting [1], the pKa was 5.1.

Regarding `CCC(C)(C)c1cc(C(C)(C)CC)c2oc(/C(C#N)=C/c3ccc(N(C(=O)OC(C(=O)Nc4cc(CS(=O)(=O)c5ccccc5)ccc4Cl)C(=O)c4ccc(OC)cc4)C4CCCC4)cc3C)nc2c1` (stereo not drawn) [CY-4, reference compound], the pKa under setting [1] amounted to 10.6. Still for that read-out and setting: under `CCC(C)(C)c1cc(C(C)(C)CC)c2oc(/C(C#N)=C/c3ccc(N(C(=O)OC(C(=O)Nc4cc(CS(=O)(=O)c5ccc(O)cc5)ccc4Cl)C(=O)c4ccc(OC)cc4)C4CCCC4)cc3C)nc2c1` (stereo not drawn) [CY-5, reference compound] stands 10; under `CCCCCCCCCCCCOC(=O)c1ccc(Cl)c(NC(=O)C(OC(=O)N(C)c2ccc(/C=C(\C#N)c3nc4cc(C(C)(C)C)ccc4o3)c(C)c2)C(=O)c2ccc(OC)cc2)c1` (stereo not drawn) [CY-7, reference compound], 9.1.

As for `CCCCCCCCCCCCNS(=O)(=O)c1ccc(NC(=O)C(OC(=O)N(c2ccc(/C=C(\C#N)c3nc4cc(C(C)(C)C)ccc4o3)c(C)c2)C2CCCC2)C(=O)c2ccc(OC)cc2)c(Cl)c1` (stereo not drawn) [CY-8, reference compound], under setting [2], the pKa stood at 9.5. In the case of `CCCCCCCCCCCCCCCCNS(=O)(=O)c1ccc(Cl)c(NC(=O)C(OC(=O)N(CCCCCCCCCCCC)c2ccc(/C=C(\C#N)c3nc4ccccc4o3)c(C)c2)C(=O)c2ccc(OC)cc2)c1` (stereo not drawn) [CY-12, reference compound], the pKa (standard measurement, read-out: pKa at the coupling site) was found to be 8.7. For the compound `CCCCCCCCCCCCCCCCNS(=O)(=O)c1ccc(Cl)c(NC(=O)C(OC(=O)N(CCCC)c2ccc(/C=C(\C#N)c3nc4ccccc4o3)c(C)c2)C(=O)c2ccc(OC)cc2)c1` (stereo not drawn) [CY-13, reference compound], the pKa under setting [3] was found to be 8.8. Take `CCCCCCCCCCCCS(=O)(=O)c1ccc(NC(=O)C(OC(=O)N(C)c2ccc(/C=C(\C#N)c3nc4cc(C(C)(C)C)ccc4o3)c(C)c2)C(=O)c2ccccc2)c(Cl)c1` (stereo not drawn) [Coupler Y-1]: the pKa under setting [1] worked out at 7.4. As to `CCCCCCCCCCCCCCCCNS(=O)(=O)c1ccc(Cl)c(NC(=O)C(OC(=O)N(C)c2ccc(/C=C(\C#N)c3nc4cc(C(C)(C)C)ccc4o3)c(C)c2)C(=O)c2ccc(OC)cc2)c1` (stereo not drawn) [Coupler Y-2], under setting [1], the pKa was 8.5. In the case of `CCCCCCCCCCCCS(=O)(=O)c1ccc(NC(=O)C(OC(=O)N(c2ccc(/C=C(\C#N)c3nc4cc(C(C)(C)C)ccc4o3)c(C)c2)C2CCCC2)C(=O)c2ccccc2)c(Cl)c1` (stereo not drawn) [Coupler Y-3], the pKa under setting [4] amounted to 7.8. Regarding `COc1ccc(C(=O)C(OC(=O)N(c2ccc(/C=C(\C#N)c3nc4cc(C(C)(C)C)ccc4o3)c(C)c2)C2CCCC2)C(=O)Nc2ccc([N+](=O)[O-])cc2Cl)cc1` (stereo not drawn) [Coupler Y-4], the pKa under setting [4] was 8.2. Consider `CCC(C)(C)c1cc(C(C)(C)CC)c2oc(/C(C#N)=C/c3ccc(N(C(=O)OC(C(=O)Nc4ccc([N+](=O)[O-])cc4Cl)C(=O)c4ccccc4)C4CCCC4)cc3C)nc2c1` (stereo not drawn) [Coupler Y-5], for which, under setting [2], the pKa was 7.4. `CCCCCCCCCCCCNS(=O)(=O)c1ccc(NC(=O)C(OC(=O)N(c2ccc(/C=C(\C#N)c3nc4ccccc4o3)c(C)c2)C2CCCC2)C(=O)c2ccccc2)c(Cl)c1` (stereo not drawn) [Coupler Y-9]: under setting [3], the pKa stood at 8. Consider `CCCCCCCCCCCCS(=O)(=O)c1ccc(NC(=O)C(OC(=O)N(c2ccc(/C=C(\C#N)c3nc4ccccc4o3)c(C)c2)C2CCCC2)C(=O)c2ccc(Cl)cc2)c(Cl)c1` (stereo not drawn) [Coupler Y-10], for which, under setting [5], the pKa was 7.2. For `CCCCCCCCCCCCS(=O)(=O)c1ccc(NC(=O)C(OC(=O)N(CC)c2ccc(/C=C(\C#N)c3nc4cc(C(C)(C)CC(C)(C)C)ccc4o3)c(C)c2)C(=O)c2ccc(Cl)cc2)c(Cl)c1` (stereo not drawn) [Coupler Y-11], the pKa under setting [5] came to 7.
